Measured values reported in ChEMBL document CHEMBL1649156, “Antianaerobic activity of sulopenem compared to six other agents” (2009).

How the values were obtained:
Assay type in all cases: functional
Prevotella intermedia = assay: Antimicrobial activity in Prevotella intermedia by CLSI agar dilution method in presence of Sulbactam
[1] = test system: Enterocloster clostridioformis; assay: Antimicrobial activity in Clostridium clostridioforme by CLSI agar dilution method in presence of Sulbactam
Anaerococcus prevotii = assay: Antimicrobial activity in Anaerococcus prevotii by CLSI agar dilution method in presence of Sulbactam
Prevotella bergensis = assay: Antimicrobial activity in Prevotella bergensis by CLSI agar dilution method in presence of Sulbactam; settings: Hallella bergensis
Lactobacillus = assay: Antimicrobial activity in Lactobacillus by CLSI agar dilution method in presence of Sulbactam
Prevotella baroniae = assay: Antimicrobial activity in Prevotella baroniae by CLSI agar dilution method in presence of Sulbactam; settings: Segatella baroniae
Clostridium sp. = assay: Antimicrobial activity in Clostridium sp. by CLSI agar dilution method in presence of Sulbactam
Fusobacterium nucleatum = assay: Antimicrobial activity in Fusobacterium nucleatum by CLSI agar dilution method in presence of Sulbactam
Fusobacterium varium = assay: Antimicrobial activity in Fusobacterium varium by CLSI agar dilution method in presence of Sulbactam
Parvimonas micra = assay: Antimicrobial activity in Micromonas micros by CLSI agar dilution method in presence of Sulbactam
[2] = test system: Paraclostridium bifermentans; assay: Antimicrobial activity in Clostridium bifermentans by CLSI agar dilution method in presence of Sulbactam
Eggerthella lenta = assay: Antimicrobial activity in Eggerthella lenta by CLSI agar dilution method in presence of Sulbactam
[3] = test system: Peptostreptococcus anaerobius; assay: Antimicrobial activity in Peptostreptococcus anaerobius by CLSI agar dilution method in presence of Sulbactam
Actinomyces = assay: Antimicrobial activity in Actinomyces by CLSI agar dilution method in presence of Sulbactam
Bacteroides uniformis = assay: Antimicrobial activity in Bacteroides uniformis by CLSI agar dilution method in presence of Sulbactam
Bacteroides fragilis = assay: Antimicrobial activity in Bacteroides fragilis by CLSI agar dilution method in presence of Sulbactam
Finegoldia magna = assay: Antimicrobial activity in Finegoldia magna by CLSI agar dilution method in presence of Sulbactam
Clostridium perfringens = assay: Antimicrobial activity in Clostridium perfringens by CLSI agar dilution method in presence of Sulbactam
Clostridium butyricum = assay: Antimicrobial activity in Clostridium butyricum by CLSI agar dilution method in presence of Sulbactam
[Clostridium] innocuum = Antimicrobial activity in Clostridium innocuum by CLSI agar dilution method in presence of Sulbactam
Phocaeicola vulgatus = assay: Antimicrobial activity in Bacteroides vulgatus by CLSI agar dilution method in presence of Sulbactam
[4] = test system: Paeniclostridium sordellii; assay: Antimicrobial activity in Clostridium sordellii by CLSI agar dilution method in presence of Sulbactam; settings: Paraclostridium sordellii
Bifidobacterium = assay: Antimicrobial activity in Bifidobacterium by CLSI agar dilution method in presence of Sulbactam
Thomasclavelia ramosa = assay: Antimicrobial activity in Clostridium ramosum by CLSI agar dilution method in presence of Sulbactam
[5] = test system: Peptoniphilus asaccharolyticus; assay: Antimicrobial activity in Peptoniphilus asaccharolyticus by CLSI agar dilution method in presence of Sulbactam
Tissierella praeacuta = assay: Antimicrobial activity in Clostridium hastiforme by CLSI agar dilution method in presence of Sulbactam
Cutibacterium acnes = assay: Antimicrobial activity in Propionibacterium acnes by CLSI agar dilution method in presence of Sulbactam
Fusobacterium mortiferum = assay: Antimicrobial activity in Fusobacterium mortiferum by CLSI agar dilution method in presence of Sulbactam
Prevotella salivae = assay: Antimicrobial activity in Prevotella salivae by CLSI agar dilution method in presence of Sulbactam; settings: Segatella salivae
[6] = test system: Bacteroides thetaiotaomicron; assay: Antimicrobial activity in Bacteroides thetaiotaomicron by CLSI agar dilution method in presence of Sulbactam
Hoylesella oralis = assay: Antimicrobial activity in Prevotella oralis group by CLSI agar dilution method in presence of Sulbactam
Bacteroides stercoris = assay: Antimicrobial activity in Bacteroides stercoris by CLSI agar dilution method in presence of Sulbactam
[7] = test system: Fusobacterium necrophorum; assay: Antimicrobial activity in Fusobacterium necrophorum by CLSI agar dilution method in presence of Sulbactam
Anaerococcus tetradius = assay: Antimicrobial activity in Anaerococcus tetradius by CLSI agar dilution method in presence of Sulbactam
Clostridioides difficile = assay: Antimicrobial activity in Clostridium difficile by CLSI agar dilution method in presence of Sulbactam
Prevotella bivia = assay: Antimicrobial activity in Prevotella bivia by CLSI agar dilution method in presence of Sulbactam
Prevotella corporis = assay: Antimicrobial activity in Prevotella corporis by CLSI agar dilution method in presence of Sulbactam
Hoylesella loescheii = assay: Antimicrobial activity in Prevotella loescheii by CLSI agar dilution method in presence of Sulbactam
Bacteroides ovatus = assay: Antimicrobial activity in Bacteroides ovatus by CLSI agar dilution method in presence of Sulbactam
[8] = test system: Prevotella melaninogenica; assay: Antimicrobial activity in Prevotella melaninogenica by CLSI agar dilution method in presence of Sulbactam
Clostridium cadaveris = assay: Antimicrobial activity in Clostridium cadaveris by CLSI agar dilution method in presence of Sulbactam
[9] = test system: Parabacteroides distasonis; assay: Antimicrobial activity in Bacteroides distasonis by CLSI agar dilution method in presence of Sulbactam
Prevotella veroralis = assay: Antimicrobial activity in Prevotella veroralis by CLSI agar dilution method in presence of Sulbactam
Prevotella buccae = assay: Antimicrobial activity in Prevotella buccae by CLSI agar dilution method in presence of Sulbactam; settings: Segatella buccae
Porphyromonas gingivalis = assay: Antimicrobial activity in Porphyromonas gingivalis by CLSI agar dilution method in presence of Sulbactam
Prevotella disiens = assay: Antimicrobial activity in Prevotella disiens by CLSI agar dilution method in presence of Sulbactam
Prevotella sp. = assay: Antimicrobial activity in Prevotella sp.by CLSI agar dilution method in presence of Sulbactam
[10] = test system: Porphyromonas asaccharolytica; assay: Antimicrobial activity in Porphyromonas asaccharolytica by CLSI agar dilution method in presence of Sulbactam
Prevotella denticola = assay: Antimicrobial activity in Prevotella denticola by CLSI agar dilution method in presence of Sulbactam
Prevotella nigrescens = assay: Antimicrobial activity in Prevotella nigrescens by CLSI agar dilution method in presence of Sulbactam
Clostridium tertium = assay: Antimicrobial activity in Clostridium tertium by CLSI agar dilution method in presence of Sulbactam

CC1(C)S[C@@H]2[C@H](NC(=O)[C@H](N)c3ccccc3)C(=O)N2[C@H]1C(=O)O [AMPICILLIN]
1 µg/mL: MIC [1] | MIC (Prevotella bergensis) | MIC50 (Lactobacillus) | MIC90 (Lactobacillus) | MIC90 (Parvimonas micra) | MIC50 (Eggerthella lenta) | MIC (Bacteroides uniformis) | MIC50 (Bacteroides uniformis) | MIC50 (Bacteroides fragilis) | MIC (Clostridium butyricum) | MIC (Tissierella praeacuta) | MIC50 (Fusobacterium mortiferum) | MIC (Bacteroides stercoris) | MIC50 (Prevotella bivia) | MIC (Bacteroides ovatus) | MIC50 (Bacteroides ovatus)
16 µg/mL: MIC90 [3] | MIC90 (Phocaeicola vulgatus)
0.25 µg/mL: MIC50 (Prevotella intermedia) | MIC50 (Clostridium sp.) | MIC50 [3] | MIC50 (Actinomyces) | MIC50 (Finegoldia magna) | MIC90 (Clostridium perfringens) | MIC90 (Bifidobacterium) | MIC90 (Cutibacterium acnes) | MIC50 (Prevotella buccae) | MIC50 (Prevotella disiens) | MIC50 (Prevotella nigrescens) | MIC (Clostridium tertium) | MIC50 (Clostridium tertium)
0.5 µg/mL: MIC90 (Prevotella intermedia) | MIC90 (Clostridium sp.) | MIC [2] | MIC90 (Finegoldia magna) | MIC (Hoylesella loescheii) | MIC50 [8] | MIC50 (Prevotella denticola) | MIC90 (Prevotella nigrescens)
32 µg/mL: MIC90 [9]
2 µg/mL: MIC50 (Fusobacterium varium) | MIC90 (Fusobacterium varium) | MIC90 (Eggerthella lenta) | MIC50 (Phocaeicola vulgatus) | MIC50 [6] | MIC50 (Bacteroides stercoris) | MIC50 (Clostridioides difficile) | MIC90 (Clostridioides difficile) | MIC90 [8] | MIC90 (Prevotella buccae) | MIC90 (Prevotella denticola)
≤ 0.125 µg/mL: MIC (Anaerococcus prevotii) | MIC (Prevotella baroniae) | MIC (Fusobacterium nucleatum) | MIC50 (Fusobacterium nucleatum) | MIC90 (Fusobacterium nucleatum) | MIC (Parvimonas micra) | MIC50 (Parvimonas micra) | MIC (Actinomyces) | MIC (Clostridium perfringens) | MIC50 (Clostridium perfringens) | MIC ([Clostridium] innocuum) | MIC [4] | MIC (Bifidobacterium) | MIC50 (Bifidobacterium) | MIC (Thomasclavelia ramosa) | MIC [5] | MIC50 [5] | MIC (Cutibacterium acnes) | MIC50 (Cutibacterium acnes) | MIC (Prevotella salivae) | MIC (Hoylesella oralis) | MIC [7] | MIC50 [7] | MIC (Anaerococcus tetradius) | MIC50 (Anaerococcus tetradius) | MIC90 (Anaerococcus tetradius) | MIC (Prevotella corporis) | MIC50 (Prevotella corporis) | MIC (Clostridium cadaveris) | MIC (Prevotella veroralis) | MIC (Porphyromonas gingivalis) | MIC (Prevotella disiens) | MIC (Prevotella sp.) | MIC [10]
> 32 µg/mL: MIC90 (Fusobacterium mortiferum)
4 µg/mL: MIC90 (Prevotella bivia) | MIC90 (Bacteroides ovatus)
8 µg/mL: MIC90 (Bacteroides fragilis) | MIC90 [6] | MIC50 [9]
